Test results as given in ChEMBL document CHEMBL4118215, “Design and synthesis of functionalized piperazin-1yl-(E)-stilbenes as inhibitors of 17α-hydroxylase-C17,20-lyase (Cyp17)” (Bioorg Med Chem Lett, 2018).
Each block holds one compound with its values, some of them ahead of it.

Assays:
[1] = target: T1, Steroid 17-alpha-hydroxylase/17,20 lyase (Homo sapiens, UniProt P05093); test: Inhibition of recombinant CYP17 (unknown origin) expressed in human AD293 cells using [21-3H]17alpha-hydroxypregnenolone as substrate preincubated for 60 mins followed by substrate addition measured after 4 hrs Topcount method; format: cell-based
T1 sequence (P05093 whole entry): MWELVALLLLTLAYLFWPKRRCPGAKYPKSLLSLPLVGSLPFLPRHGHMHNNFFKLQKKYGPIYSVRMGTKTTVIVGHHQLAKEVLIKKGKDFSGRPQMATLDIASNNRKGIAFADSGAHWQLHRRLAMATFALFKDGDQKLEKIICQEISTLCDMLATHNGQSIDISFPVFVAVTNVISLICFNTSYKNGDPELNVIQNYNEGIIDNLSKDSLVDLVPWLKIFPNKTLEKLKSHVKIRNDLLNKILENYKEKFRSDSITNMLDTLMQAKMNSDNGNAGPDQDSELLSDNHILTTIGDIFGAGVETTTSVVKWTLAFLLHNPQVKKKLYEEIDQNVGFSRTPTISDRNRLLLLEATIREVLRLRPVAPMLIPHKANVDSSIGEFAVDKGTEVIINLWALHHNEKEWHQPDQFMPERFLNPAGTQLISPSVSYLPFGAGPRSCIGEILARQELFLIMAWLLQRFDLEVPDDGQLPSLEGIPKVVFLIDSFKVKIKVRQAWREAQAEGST

Homo sapiens [2] = species: Homo sapiens; test: Selectivity index, ratio of IC50 for human CYP3A4 to IC50 for recombinant CYP17 (unknown origin)
Homo sapiens [3] = species: Homo sapiens; test: Selectivity index, ratio of IC50 for CYP19 (unknown origin) to IC50 for recombinant CYP17 (unknown origin)
[4] = Half-life in guinea pig liver microsomes in presence of NADPH regenerating system by LC/MS/MS method; format: ADME, Cavia porcellus, microsome
[5] = Cmax in guinea pig at 1 mg/kg, iv by LC-MS/MS analysis; format: ADME, organism-based, Cavia porcellus; set-up: dose 1 mg/kg, route intravenous; conditions: in vivo
[6] = Tmax in guinea pig at 1 mg/kg, iv by LC-MS/MS analysis; format: ADME, organism-based, Cavia porcellus; conditions: in vivo
[7] = Half-life in guinea pig at 1 mg/kg, iv by LC-MS/MS analysis; format: ADME, organism-based, Cavia porcellus; conditions: in vivo
[8] = Volume of distribution in guinea pig at 1 mg/kg, iv by LC-MS/MS analysis; format: ADME, organism-based, Cavia porcellus; conditions: in vivo
[9] = Clearance in guinea pig at 1 mg/kg, iv by LC-MS/MS analysis; format: ADME, organism-based, Cavia porcellus; conditions: in vivo
[10] = AUC (0 to infinity) in guinea pig at 1 mg/kg, iv by LC-MS/MS analysis; format: ADME, organism-based, Cavia porcellus; set-up: dose 1 mg/kg, route intravenous, time infinity; conditions: in vivo
Cavia porcellus [11] = test: Cmax in guinea pig at 10 mg/kg, po by LC-MS/MS analysis; format: ADME, organism-based; set-up: dose 10 mg/kg, route oral; conditions: in vivo
Cavia porcellus [12] = test: Half-life in guinea pig at 10 mg/kg, po by LC-MS/MS analysis; format: ADME, organism-based; conditions: in vivo
Cavia porcellus [13] = test: AUC (0 to infinity) in guinea pig at 10 mg/kg, po by LC-MS/MS analysis; format: ADME, organism-based; set-up: dose 10 mg/kg, time infinity, route oral; conditions: in vivo
Cavia porcellus [14] = test: Oral bioavailability in guinea pig at 10 mg/kg by LC-MS/MS analysis; format: ADME, organism-based; conditions: in vivo

IC50 [1]: 1 nM
SMILES: O=S(=O)(C1CC1)N1CCN(c2ccc(/C=C/c3cc(F)cc(-c4ccncc4)c3)cc2)CC1

IC50 [1]: 17 nM
SMILES: N=C(N)N1CCN(c2ccc(/C=C/c3cc(Cl)cc(-c4ccncc4)c3)cc2)CC1

IC50 [1]: 5 nM
SMILES: O=S(=O)(C(F)F)N1CCN(c2ccc(/C=C/c3cc(F)cc(-c4ccncc4)c3)cc2)CC1

IC50 [1]: 2 nM
Ratio IC50 (Homo sapiens [2]): 1560
Ratio IC50 (Homo sapiens [3]): 167
half-life [4]: 1 h
Cmax [5]: 203 ng/mL
Tmax [6]: 0.2 h
half-life [7]: 5 h
Vd [8]: 9.1 L/kg
clearance [9]: 20.9 mL/min/kg
AUC(0-inf) [10]: 815 ng·h/mL
Cmax (Cavia porcellus [11]): 271 ng/mL
t1/2 (Cavia porcellus [12]): 5.25 h
AUC (Cavia porcellus [13]): 2452 ng·h/mL
SMILES: O=S(=O)(N1CCN(c2ccc(/C=C/c3cc(F)cc(-c4ccncc4)c3)cc2)CC1)C(F)(F)F

Ratio IC50 (Homo sapiens [2]): 49
Ratio IC50 (Homo sapiens [3]): 2000
half-life [4]: 1 h
Cmax [5]: 852 ng/mL
Tmax [6]: 0.15 h
half-life [7]: 5.7 h
Vd [8]: 4.05 L/kg
clearance [9]: 8.79 mL/min/kg
AUC(0-inf) [10]: 2000 ng·h/mL
Cmax (Cavia porcellus [11]): 540 ng/mL
t1/2 (Cavia porcellus [12]): 4.8 h
AUC (Cavia porcellus [13]): 4190 ng·h/mL
SMILES: CCS(=O)(=O)N1CCN(c2ccc(/C=C/c3cc(F)cc(-c4ccncc4)c3)cc2)CC1

IC50 [1]: 5 nM
SMILES: O=S(=O)(C(F)F)N1CCN(c2ccc(/C=C/c3cc(F)cc(Cn4ccnc4)c3)cc2)CC1

SMILES: CC(=O)N1CCN(c2ccc(OCC3COC(Cn4ccnc4)(c4ccc(Cl)cc4Cl)O3)cc2)CC1 (stereo unspecified) [KETOCONAZOLE]
half-life [4]: 0.667 h

IC50 [1]: 34 nM
SMILES: O=S(=O)(C1CC1)N1CCN(c2ccc(/C=C/c3cc(F)cc(Cn4ccnc4)c3)cc2)CC1

IC50 [1]: 6 nM
SMILES: N#CCS(=O)(=O)N1CCN(c2ccc(/C=C/c3cc(Cl)cc(-c4ccncc4)c3)cc2)CC1

Ratio IC50 (Homo sapiens [2]): 151
Ratio IC50 (Homo sapiens [3]): 2170
half-life [4]: 1 h
Cmax [5]: 132 ng/mL
Tmax [6]: 0.1 h
half-life [7]: 6 h
Vd [8]: 14.8 L/kg
clearance [9]: 28.5 mL/min/kg
AUC(0-inf) [10]: 586 ng·h/mL
Cmax (Cavia porcellus [11]): 1018 ng/mL
t1/2 (Cavia porcellus [12]): 6 h
AUC (Cavia porcellus [13]): 14890 ng·h/mL
F (Cavia porcellus [14]): 184.2%
SMILES: CC(=O)N1CCN(c2ccc(/C=C/c3cc(F)cc(-c4ccncc4)c3)cc2)CC1

IC50 [1]: 5 nM
SMILES: O=S(=O)(C(F)F)N1CCN(c2ccc(/C=C/c3cc(Cl)cc(-c4ccncc4)c3)cc2)CC1
